Results on 6 molecules are retold here after patent US20200383959A1, “THERAPEUTIC AGENT CONTAINING PYRANODIPYRIDINE COMPOUND” (Eisai R&D Management Co., Ltd., priority 2017, published 2020).

pIC50: −log10 of the molar value.

The subject of test [1] is dystonia in the dt^sz model. The note with it: Non Patent Literature 21; cited from earlier work.
The subject of test [2] is tremor in a harmaline animal model. The note with it: Non Patent Literature 7; cited from earlier work.
Another test concerns pain induced by STZ. Description: Rat STZ model, von Frey test. The format is in vivo. The protocol: [Test Example 3] Rat STZ Model
To confirm analgesic effect in an SFN model, an STZ model test with rats was conducted. The effect of the compound on pain induced 2 weeks after administration of STZ was examined.
Seven-week-old male SD rats (Charles River) were used for the test. To STZ aliquoted in advance into shading bottles, ice-cooled physiological saline (Otsuka Pharmaceutical Factory, Inc.) was added to reach 65 mg/mL, and the resultant was gently inversion-mixed with ice-cooling to dissolve STZ. After dissolving, the resultant was stored under ice-cooling, and used within 20 minutes from the initiation of preparation. About 20 hours after fasting, the animals were anesthetize with isoflurane, and the 65 mg/mL STZ solution was administered to each animal from the tail vein with a volume of […] over about 15 seconds by using a 1 mL syringe and a 26G injection needle. After 14 days after the administration of STZ, body weight and pain response before drug administration were measured (see description below on pain response), and animals for each of which the 50% response threshold to mechanical stimulation was 6 g or lower in von Frey test were selected, and grouped so as to provide no difference in 50% response thresholds and body weight among groups.
The compound was prepared for oral administration in DMSO:1 mol/L HCl:Cremophor EL:0.5% methylcellulose=10:5:5:80 to reach an administration volume of 10 mL/kg, and orally administered. As a negative control, only the mixed solvent without the compound (Vehicle) was used.
Evaluation of pain response was performed by using von Frey test under blind conditions, without involving any measurer for pain response in grouping and administration. Measurement of 50% response thresholds by von Frey test was performed in accordance with a method by Chaplan et al. (J Neurosci Methods 1994; 53: 55-63) using von Frey filaments. Each animal was put in a measurement cage with a floor of a metal mesh about 30 minutes before scheduled measurement time, and left to stand to habituate to the environmental change, and after the animal was confirmed to become calm measurement was initiated. Avon Frey filament (bending force: 0.4, 0.6, 1, 2, 4, 6, 8, 15 g; starting from 2 g) was pressed vertically to the center of the sole of the left hind leg for about 6 seconds until the filament bent, and avoidance response (such as putting back the leg) was observed. In accordance with a Dixon's up-down method (Annu Rev Pharmacol Toxicol 1980; 20: 441-462), 50% response thresholds were calculated. Measurement was performed at four points of time: before drug administration on Day 14, and 30 minute, 90 minutes, and 180 minutes after the administration.
The results were represented as mean±standard deviation. Dunnett's multiple comparison test was used for statistical analysis, and a significance level of 5% was used for both sides in all cases.

The subject of another test is AMPA receptor. Nature of the test: AMPA-induced intraneuronal calcium entry-suppressing action, primary culture of embryonic rat cerebral cortex neurons. Format: cell-based. The note with it: AMPA-induced increase of intracellular calcium, rat cortical neurons; read-out: IC50 for AMPA inhibition. The text has this: [Test Example 1] AMPA-Induced Intraneuronal Calcium Entry-Suppressing Action
With regard to the AMPA receptor inhibitory action of the compounds, AMPA-induced intraneuronal calcium entry-suppressing action was examined using a primary culture system of embryonic rat cerebral cortex neurons.
<Culture conditions> Whole fetuses were removed from the uteri of Wistar rats at embryonic day 18 (Charles River Japan) anesthetized with isoflurane. Whole brains were removed from the whole fetuses, and the cerebral cortex was separated in Leibovitz's L-15 medium, or Hanks balanced salt solution containing 20% fetal bovine serum. The resulting material was treated with trypsin/DNase solution at 37° C. for 45 to 60 minutes. After the serum was added to stop the trypsin reaction, the resulting material was centrifuged at 1200 to 1500 rpm for 3 to 5 minutes. After the supernatant was removed, Neurobasal medium (containing 2% B-27 supplement and the like; hereinafter “Neurobasal medium”) was added, and the cells were uniformly dispersed by gently pipetting. The cell suspension was slightly stirred, and then filtered through a nylon mesh filter. Viable cells were counted using a hemocytometer, and diluted with Neurobasal medium to 8 to 10×10^5 cells/mL. […]
On the day of the assay, the medium was removed and replaced with a calcium measurement solution containing 5 to 10 μmol/L of Fura 2-AM (140 mmol/L sodium chloride, 5 mmol/L potassium chloride, 2 mmol/L magnesium chloride, 3 mmol/L calcium chloride, 24 mmol/L D(+)-glucose, 10 mmol/L HEPES, 1 μmol/L MK-801, pH 7.4), and the cells were treated in a CO2 incubator (5% CO2, 37° C.) for 1 to 2 hours. […] The plates were subsequently placed on the Fluorescence Drug Screening System 6000 (Hamamatsu Photonics K.K.). […] Changes in calcium concentration were measured as the changes in fluorescence intensity at excitation wavelengths of 340 nm and 380 nm (measurement wavelength: 540 nm). The rate of change of the intracellular calcium concentration was calculated in accordance with the following equation: […]
In general terms: Calcium assays in cells follow changes in intracellular calcium, usually with a dye or a luminescent sensor.

In test [3] the test system is tremor induced by harmaline. Nature of the test: Rat harmaline model (balance disorder / tremor score). The format is in vivo. The following applies: for Tremor score: 20 min before harmaline 20 mg/kg i.p., score 0-3. The method, then: [Test Example 2] Rat Harmaline Model
To confirm tremor-suppressing effect, a harmaline model test with rats was conducted. In this model, balance disorder observed after administration of harmaline serves as an evaluation index (Neuroscience Letter, 590, p 84-90 (2015)).
Four-week-old male SD rats (Charles River) were subjected to the test (two treatments in total, n=5 in each treatment). Balance disorder (one of tremor symptoms) induced by harmaline was used as an evaluation index (the above literature).
The compound was prepared for oral administration in 0.4% methylcellulose/5% Cremophor/5% 1 N hydrochloric acid/10% dimethylsulfoxide solution to reach an administration volume of 5 mL/kg, and orally administered. As a negative control, only the mixed solvent without the compound (Vehicle) was used. Harmaline (Sigma-Aldrich Co. LLC) was diluted with physiological saline (Otsuka Pharmaceutical Co., Ltd.) to prepare 4 mg/mL harmaline solution. Twenty minutes after administration of the compound, the 4 mg/mL harmaline solution was intraperitoneally administered (dose: 20 mg/kg). Balance disorder was observed during 10 minutes from 5 minutes to 15 minutes after the administration of harmaline, and scored in four grades of 0, 1, 2, and 3.
The results were represented as mean±standard deviation. Dunnett's multiple comparison test was used for statistical analysis, and results with p<0.05 were determined to be of statistically significant difference.

A further test deals with human glioma cell line. The following applies: Non Patent Literature 34; cited from earlier work.
In test [4] the test system is hyperalgesia to mechanical stimulation in STZ models. The following applies: direct administration to the anterior cingulate cortex; Non Patent Literature 16; cited from earlier work.
Setting [5] is: pre-administration, statement in words.

Turning to `NS(=O)(=O)c1cccc2c1c([N+](=O)[O-])cc1[nH]c(=O)c(=O)[nH]c12` [NBQX, 2,3-dioxo-6-nitro-1,2,3,4-tetrahydrobenzo[f]quinoxaline-7-sulfonamide], the Anti-dystonia action result in test [1] is on record as “anti-dystonia action”. For the same molecule, in test [2], the Effect on tremor entry is given as “suppresses tremor”.
As usually defined, the pIC50 is the negative decadic logarithm of the IC50, by convention in mol/L. For `N#Cc1c(F)cccc1-c1cc2c(n(-c3cccnc3)c1=O)COc1cc(F)cnc1-2` [Compound (I), 2-fluoro-6-(3-fluoro-8-oxo-7-(pyridin-3-yl)-7,8-dihydro-6H-pyrano[3,2-b:5,4-b′]dipyridin-9-yl)benzonitrile], the 50% response threshold was found to be 7.3 ± 1.4 g in the test with pain induced by STZ (0.6 mg/kg oral, Day 14, 30 min); 6.6 ± 1.4 g with pain induced by STZ (0.6 mg/kg oral, Day 14, 90 min); 5.2 ± 1.1 g with pain induced by STZ (0.6 mg/kg oral, Day 14, 180 min); 3.6 ± 0.4 g in the test on pain induced by STZ (0.6 mg/kg oral, Day 14, Pre (before drug administration)); 9.5 ± 1.4 g in the test with pain induced by STZ (2 mg/kg oral, Day 14, 30 min); 8.0 ± 1.3 g in the test on pain induced by STZ (2 mg/kg oral, Day 14, 90 min). Further, the 50% response threshold was 6.4 ± 1.1 g with pain induced by STZ (2 mg/kg oral, Day 14, 180 min); 3.6 ± 0.3 g in the test on pain induced by STZ (2 mg/kg oral, Day 14, Pre (before drug administration)); 12.5 ± 1.1 g in the test with pain induced by STZ (6 mg/kg oral, Day 14, 30 min); 12.1 ± 1.5 g in the test on pain induced by STZ (6 mg/kg oral, Day 14, 90 min); 9.6 ± 1.4 g with pain induced by STZ (6 mg/kg oral, Day 14, 180 min); 3.6 ± 0.4 g with pain induced by STZ (6 mg/kg oral, Day 14, Pre (before drug administration)). Besides, in the test on pain induced by STZ (setting [5]), the Analgesic effect result was “Significant analgesic effect”. Also, the negative logarithm of the IC50 (pIC50) in the test with AMPA receptor is 7.71. In addition, the Tremor score in test [3] (1 mg/kg oral) is reported as 1.3 ± 0.2; in test [3] (2 mg/kg oral) it was 0.6 ± 0.3; in test [3] (4 mg/kg oral) it was 0.4 ± 0.2. Further, in test [3] (setting [5]), the “Effect on tremor scores” value is “statistically significant reduction of tremor scores”.
Consider `N#Cc1c(F)cccc1-c1cc2c(n(-c3cncnc3)c1=O)COc1cccnc1-2` [Compound (II), 2-fluoro-6-(8-oxo-7-(pyrimidin-5-yl)-7,8-dihydro-6H-pyrano[3,2-b:5,4-b′]dipyridin-9-yl)benzonitrile], for which the pIC50 in the test with AMPA receptor was 7.54.
The same measure, in the same setting: the same measure for `Cc1ncc(-n2c3c(cc(-c4cccc(F)c4C#N)c2=O)-c2ncccc2OC3)cn1` [Compound (III), 2-fluoro-6-(7-(2-methylpyrimidin-5-yl)-8-oxo-7,8-dihydro-6H-pyrano[3,2-b:5,4-b′]dipyridin-9-yl)benzonitrile]: 7.35.
For the molecule `O=C(O)Cn1c(=O)c(=O)[nH]c2cc([N+](=O)[O-])c(-n3ccnc3)cc21` [YM872], the Antitumor effect entry in the test on human glioma cell line is on record as “antitumor effect”.
Turning to `N#Cc1cc2c(cc1[N+](=O)[O-])=NC(=O)C(=O)N=2` [CNQX, 6-cyano-7-nitroquinoxaline-2,3-dione], the “Effect on fever and hyperalgesia to mechanical stimulation” value in test [4] is given as “suppressed”.
